Assay results taken from patent US12180165B2, “Human TLR8-selective agonists” (University of Kansas, priority 2015, dated 2024).
Structures can show the parent of a compound that is named as a salt.

Columns and labels:
human TLR8 [1] = target: T1, human TLR8 (Homo sapiens, UniProt Q9NR97); test: Human TLR8-specific reporter gene assay (NF-κB induction, sAP readout in HEK293 cells); assay type: cell-based; details: EC50 in human TLR8-specific reporter gene assay
T1 construct: expressed in transfected cells; host or cells: HEK293
T1 sequence (Q9NR97 27-1041): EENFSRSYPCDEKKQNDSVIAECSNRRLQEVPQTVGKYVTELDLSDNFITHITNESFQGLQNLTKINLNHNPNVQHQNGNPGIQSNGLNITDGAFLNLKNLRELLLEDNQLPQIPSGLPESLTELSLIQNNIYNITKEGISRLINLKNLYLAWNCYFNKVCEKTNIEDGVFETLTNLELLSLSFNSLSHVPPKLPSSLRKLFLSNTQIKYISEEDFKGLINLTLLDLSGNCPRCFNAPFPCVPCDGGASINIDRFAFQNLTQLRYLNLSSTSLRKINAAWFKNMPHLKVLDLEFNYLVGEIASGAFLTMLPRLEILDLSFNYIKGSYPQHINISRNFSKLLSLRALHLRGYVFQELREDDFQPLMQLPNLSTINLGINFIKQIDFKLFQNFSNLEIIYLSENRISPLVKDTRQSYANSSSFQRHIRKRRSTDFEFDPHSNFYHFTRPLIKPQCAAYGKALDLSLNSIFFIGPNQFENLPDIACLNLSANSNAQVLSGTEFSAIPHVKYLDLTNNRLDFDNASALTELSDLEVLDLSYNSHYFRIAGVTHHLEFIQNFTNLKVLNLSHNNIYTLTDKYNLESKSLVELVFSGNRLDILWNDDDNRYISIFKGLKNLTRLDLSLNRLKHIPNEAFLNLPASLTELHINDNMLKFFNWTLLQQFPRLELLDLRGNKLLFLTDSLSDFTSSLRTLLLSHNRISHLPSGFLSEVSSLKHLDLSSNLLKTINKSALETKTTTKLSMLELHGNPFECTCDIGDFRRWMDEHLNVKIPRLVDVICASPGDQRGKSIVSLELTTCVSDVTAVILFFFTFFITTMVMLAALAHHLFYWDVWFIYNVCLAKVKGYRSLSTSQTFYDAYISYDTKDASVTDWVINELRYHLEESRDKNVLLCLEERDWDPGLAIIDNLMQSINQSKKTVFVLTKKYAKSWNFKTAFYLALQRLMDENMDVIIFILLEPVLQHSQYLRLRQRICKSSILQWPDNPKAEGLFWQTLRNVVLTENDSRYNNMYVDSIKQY
Method: (§1) HEK293 cells stably co-transfected with the appropriate hTLR (or NOD) and secreted alkaline phosphatase (sAP) were maintained in HEK-BLUE™ Selection medium. Stable expression of secreted alkaline phosphatase (sAP) under control of NF-κB/AP-1 promoters is inducible by appropriate TLR/NOD agonists, and extracellular sAP in the supernatant is proportional to NF-κB induction. Reporter cells were incubated at a density of ˜10^5 cells/ml in a volume of 80 μl/well, in 384-well, flat-bottomed cell culture-treated microtiter plates in the presence of graded concentrations of stimuli. sAP was assayed spectrophotometrically using an alkaline phosphatase-specific chromogen (present in HEK-detection medium as supplied by InvivoGen) at 620 nm.

[2] = system: TLR-2/-3/-4/-5/-7/-9 and NOD-1/NOD-2; test: TLR-2/-3/-4/-5/-7/-9 and NOD-1/NOD-2 counter-screens (reporter gene assays); assay type: cell-based, human
Method: as §1

human TLR8 [3] = target: T1, human TLR8; details: reference compounds, literature values (Kokatla et al.); read-out: TLR8 EC50 (previously reported); cited from earlier work
human PBMCs = test: Cytokine/chemokine induction in human peripheral blood mononuclear cells (multiplexed bead array); assay type: cell-based; details: human PBMCs as well as whole human blood, FIG. 3
Text: Immunoassays for cytokines.

CD14+ monocytes = test: Eight-color flow cytometry of activation markers in human whole blood; assay type: cell-based; details: FIG. 5
Method: Eight-color Flow-cytometric immunostimulation experiments: Cell surface marker upregulation was determined by flow cytometry using protocols as described previously (Hood, J. D. et al. Hum. Vaccin. 2010, 6, 332-335), and modified for rapid-throughput. […] Serial dilutions of selected compounds were performed using a Bio-Tek Precision 2000 XS liquid handler in sterile 96-well polypropylene plates, to which were added 100 mL aliquots of anticoagulated whole human blood. The plates were incubated at 37° C. for 16 h. Negative (endotoxin free water) controls were included in each experiment. The following fluorochrome-conjugated antibodies were used: CD3-PE, CD19-FITC, CD56-APC (eBioscience, San Diego, CA), CD14-V500, CD28 PE-Cy7, CD40 V450, CD80 APC-H7, CD86 PerCP-Cy5.5 (Becton-Dickinson Biosciences, San Jose, CA). Following incubation, 2.5 μg of each antibody was added to wells with a liquid handler, and incubated at 4° C. in the dark for 60 min. […] CD28, CD40, CD80, and CD86 activation in the major leukocyte populations, viz., natural killer lymphocytes (NK cells: CD3-CD56+), cytokine-induced killer phenotype (CIK cells: CD3+CD56+), B lymphocytes (CD19+CD3-), T lymphocytes (CD3+CD56-), monocytes (CD14+), polymorphonuclear cells (CD14-) were quantified using FlowJo v 7.0 software (Treestar, Ashland, OR).

CCCCCc1cc2c(Cc3cccc(C(N)=O)c3)cccc2nc1N [Compound 18d, 3-((2-Amino-3-pentylquinolin-5-yl)methyl)benzamide]
TLR8 Agonistic Activity (nM) (human TLR8 [1]): Inactive

CCCCCc1cc2c(Cc3ccccc3)cccc2nc1N [Compound 17d, 5-Benzyl-3-pentylquinolin-2-amine]
TLR8 Agonistic Activity (nM) (human TLR8 [1]): Inactive

CCCCCc1c(N)nc2ccccc2c1Cc1ccc(CN)cc1 [Compound 9b, 4-(4-(Aminomethyl)benzyl)-3-pentylquinolin-2-amine dihydrochloride]
specificity for TLR8 [2]: retained specificity for TLR8

CCCCCc1cc2cccc(CCCCN)c2nc1N [Compound 37, 8-(4-Aminobutyl)-3-pentylquinolin-2-amine]
TLR8 Agonistic Activity (nM) (human TLR8 [1]): Inactive

CCCCCc1c(N)nc2ccccc2c1Cc1cccc(CN)c1 [Compound 9a, 4-(3-(Aminomethyl)benzyl)-3-pentylquinolin-2-amine dihydrochloride]
specificity for TLR8 [2]: retained specificity for TLR8

C2-butyl furo[2,3-c]quinoline
EC50 (human TLR8 [3]): 1600 nM

CCCCCc1cc2c(CCCCCN)cccc2nc1N [Compound 34b, 5-(5-Aminopentyl)-3-pentylquinolin-2-amine]
induction of proinflammatory cytokines including TNF-α, IL-12 and IFN-γ (human PBMCs): induction of a specific set of proinflammatory cytokines was observed | CD40 upregulation (CD14+ monocytes): upregulate CD40 | CD80 expression (CD14+ monocytes): strongly induces CD80 expression

CCCCCc1cc2c(-c3cccc(CN)c3)cccc2nc1N [Compound 20a, 5-(3-(Aminomethyl)phenyl)-3-pentylquinolin-2-amine]
TLR8 Agonistic Activity (nM) (human TLR8 [1]): Inactive
